Consider 17 compounds from US20240366612A1, “COMPOUNDS AND METHODS FOR MODULATING NUCLEIC ACID SPLICING” (REMIX THERAPEUTICS INC., priority 2021, published 2024).

The subject of data set [1] is MYB mRNA. In words: Splicing RT-qPCR assay, MYB canonical (CJ) and alternative (AJ) junction mRNA. The class given is cell-based. Particulars: Homo sapiens, A673 or K562 cells, 24 hours treatment; for IC50: decrease in CJ mRNA; for AC50: increase in AJ mRNA. In a few lines:
(§1)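 Compound-treated A673 or K562 cells (11-point 3-fold dilution, top dose 10 uM final, DMSO ≤0.25%) were incubated for 24 h at 37° C. Lysates underwent one-step RT-qPCR for canonical and alternative-exon junction isoforms. Normalization used PPIA for A673 and GAPDH or GUSB for K562.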
For orientation: In qPCR the cycle at which signal appears reflects the starting amount.

The subject of data set [2] is HTT CJ mRNA. In words: Gene panel canonical junction qPCR assay, HTT. The class given is cell-based. Particulars: Homo sapiens, larger gene panel, read-out: HTT IC50 (decrease in CJ mRNA levels). Put shortly:
(§2)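 A673 or K562 cells treated 24 h with 11-point 3-fold dilutions (top 10 µM, ≤0.25% DMSO) at 37 °C. Canonical exon-junction mRNA measured by probe-based RT-qPCR, normalized to GAPDH, GUSB or PPIA and DMSO (2^−ΔΔCt), converted to percent response over a fixed ΔCt window; IC50 from 4-parameter fit.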

Data set [3] relates to HTT mRNA. Description: Splicing RT-qPCR assay, HTT canonical (CJ) and alternative (AJ) junction mRNA. The class given is cell-based. As to conditions: Homo sapiens, A673 or K562 cells, 24 hours treatment; for IC50: decrease in CJ mRNA; for AC50: increase in AJ mRNA. Put shortly:
as §1

In data set [4] the test system is SMN2 CJ mRNA. In words: Gene panel canonical junction qPCR assay, SMN2. The class given is cell-based. Particulars: Homo sapiens, larger gene panel, read-out: SMN2 IC50 (decrease in CJ mRNA levels). Put shortly: as §2
For data set [5], the system named is Target C CJ mRNA. In words: Gene panel canonical junction qPCR assay, Target C. The data set is classed as cell-based. As to conditions: Homo sapiens, larger gene panel, read-out: Target C IC50 (decrease in CJ mRNA levels). Put shortly: as §2
Data set [6] is described as follows: Cell Titer Glo 2.0 cell viability assay. Particulars: human, K562 cells. A general note: ATP-based viability assays read luminescence as a measure of living cells.

Where only a bound is given, the exact number is not on record here.

The IC50 is the point on the concentration scale where inhibition reaches its midpoint. The term AC50 denotes the concentration at which the activity in the assay is half-maximal. Low values mean greater potency, high ones weaker potency. One may read the GI50 as the concentration at which growth is held to half of that of the control. Low values mean greater sensitivity of the cells, high ones lower sensitivity of the cells. For the compound `Cc1cn2cc(-c3cc4ncn(N5CCNCC5)c(=O)c4s3)cc(F)c2n1` [Compound 269, 6-{8-fluoro-2-methylimidazo[1,2-a]pyridin-6-yl}-3-(piperazin-1-yl)thieno[3,2-d]pyrimidin-4-one], the IC50 in data set [1] is 100 to 1000 nM; in data set [2], 100 to 1000 nM; in data set [3] it was 100 to 1000 nM; in data set [4], below 100 nM; in data set [5] it was 1000 to 10000 nM. The AC50 in data set [1] and in data set [3] was 100 to 1000 nM in each case. This compound also yielded a GI50 at 72 h in data set [6] of 100 to 1000 nM.
For the compound `Cc1cn2cc(-c3cc4ncn(C5CCNC5)c(=O)c4s3)cc(F)c2n1` (stereo not shown) [Compound 270, 6-{8-fluoro-2-methylimidazo[1,2-a]pyridin-6-yl}-3-(pyrrolidin-3-yl)thieno[3,2-d]pyrimidin-4-one], the IC50 in data set [1], in data set [2], in data set [3], in data set [4] and in data set [5] was 100 to 1000 nM each time. Further, the AC50 in data set [1] and in data set [3] was 100 to 1000 nM each time. Further, the GI50 at 72 h in data set [6] lay in the range of 100 to 1000 nM.
Take `Cc1nc(-c2cc3ncn(C4CCNCC4)c(=O)c3s2)cc2cn(C)nc12` [Compound 271]: the half-maximal inhibitory concentration (IC50) in data set [1] was 100 to 1000 nM; in data set [2], 1000 to 10000 nM; in data set [3], 1000 to 10000 nM; in data set [4] it was below 100 nM; in data set [5] it was 1000 to 10000 nM. The AC50 in data set [1] and in data set [3] was 1000 to 10000 nM in each case. This compound registered a GI50 at 72 h in data set [6] of 1000 to 10000 nM.
Take `Cc1cn2cc(-c3cc4ncn(C5CCNCC5(F)F)c(=O)c4s3)cc(F)c2n1` (stereo not shown) [Compound 274, 3-(3,3-difluoropiperidin-4-yl)-6-{8-fluoro-2-methylimidazo[1,2-a]pyridin-6-yl}thieno[3,2-d]pyrimidin-4-one]: the IC50 in data set [1] is above 10000 nM; in data set [2] it was above 10000 nM; in data set [3], above 10000 nM; in data set [4], 1000 to 10000 nM; in data set [5], above 10000 nM. The figures for the AC50 in data set [1] and in data set [3] were above 10000 nM and 1000 to 10000 nM, respectively. In data set [6], this compound came in with a GI50 at 72 h above 10000 nM.
In the case of `Cc1cn2cc(-c3cc4ncn(C5CCCNCC5)c(=O)c4s3)cc(F)c2n1` (stereo not shown) [Compound 275, 3-(azepan-4-yl)-6-{8-fluoro-2-methylimidazo[1,2-a]pyridin-6-yl}thieno[3,2-d]pyrimidin-4-one], the IC50 in data set [1] was 100 to 1000 nM; in data set [2], 100 to 1000 nM; in data set [3], 100 to 1000 nM; in data set [4], below 100 nM; in data set [5] it was 100 to 1000 nM. In addition, the AC50 in data set [1] and in data set [3] was 100 to 1000 nM each time. Besides, the GI50 at 72 h in data set [6] was 100 to 1000 nM.
Take `Cc1cn2cc(-c3cc4ncn(C5=CCNCC5)c(=O)c4s3)cc(F)c2n1` [Compound 276, 6-{8-fluoro-2-methylimidazo[1,2-a]pyridin-6-yl}-3-(1,2,3,6-tetrahydropyridin-4-yl)thieno[3,2-d]pyrimidin-4-one]: the IC50 is 100 to 1000 nM in data set [1]; 100 to 1000 nM in data set [2]; 100 to 1000 nM in data set [3]; below 100 nM in data set [4]; 100 to 1000 nM in data set [5]. For the same compound, the AC50 in data set [1] and in data set [3] was 100 to 1000 nM each time. Besides, the concentration for 50% growth inhibition (GI50) at 72 h in data set [6] was in the range of 100 to 1000 nM.
As to `Cc1cn2cc(-c3cc4ncn(C5CNCCC5=O)c(=O)c4s3)cc(F)c2n1` (stereo not shown) [Compound 279, 3-(6-{8-fluoro-2-methylimidazo[1,2-a]pyridin-6-yl}-4-oxothieno [3,2-d]pyrimidin-3-yl)piperidin-4-one], the IC50 in data set [1], in data set [2], in data set [3], in data set [4] and in data set [5] was above 10000 nM each time. For the same compound, the AC50 in data set [1] and in data set [3] was above 10000 nM in each case. The GI50 at 72 h in data set [6] is above 10000 nM.
Regarding `Cc1cn2cc(N3CCc4cc(C5CCNCC5)sc4C3=O)cc(F)c2n1` [Compound 800, 6-[8-fluoro-2-methylimidazo[1,2-a]pyridin-6-yl]-2-(piperidin-4-yl)-4H,5H-thieno[2,3-c]pyridin-7-one], the IC50 in data set [1], in data set [2], in data set [3], in data set [4] and in data set [5] was above 10000 nM throughout. For the same compound, the AC50 in data set [1] and in data set [3] was above 10000 nM in each case. For the same compound, the GI50 at 72 h in data set [6] was above 10000 nM.
On to `Cc1cn2cc(-n3ccc4cc(C5CCNCC5)sc4c3=O)cc(F)c2n1` [Compound 801, 6-[8-fluoro-2-methylimidazo[1,2-a]pyridin-6-yl]-2-(piperidin-4-yl)thieno[2,3-c]pyridin-7-one], for which the IC50 in data set [1], in data set [2], in data set [3], in data set [4] and in data set [5] was above 10000 nM throughout. Besides, the AC50 in data set [1] and in data set [3] was above 10000 nM in each case. Besides, the concentration for 50% growth inhibition (GI50) at 72 h in data set [6] was above 10000 nM.
In the case of `Cc1cc(-c2cc3cnn(C4CCNCC4)c(=O)c3s2)cc2cn(C)nc12` [Compound 802, 2-(2,7-dimethyl-2H-indazol-5-yl)-6-(piperidin-4-yl)thieno[2,3-d]pyridazin-7(6H)-one], the IC50 in data set [1] is 100 to 1000 nM; in data set [2] it was 100 to 1000 nM; in data set [3] it was 100 to 1000 nM; in data set [4] it was below 100 nM; in data set [5] it was 100 to 1000 nM. Besides, the half-maximal activity concentration (AC50) in data set [1] and in data set [3] was 100 to 1000 nM in each case. In addition, the GI50 at 72 h in data set [6] lay within 100 to 1000 nM.
With `Cc1cn2cc(-c3cc4ccn(C5CCNCC5)c(=O)c4s3)cc(F)c2n1` [Compound 804, 2-(8-fluoro-2-methylimidazo[1,2-a]pyridin-6-yl)-6-(piperidin-4-yl)thieno[2,3-c]pyridin-7(6H)-one], the IC50 in data set [1], in data set [2], in data set [3], in data set [4] and in data set [5] was 100 to 1000 nM in each case. The half-maximal activity concentration (AC50) in data set [1] and in data set [3] was 100 to 1000 nM in each case. The same compound gave a GI50 at 72 h in data set [6] of 100 to 1000 nM.
Turning to `Cc1cc(-c2cc3ccn(C4CCNCC4)c(=O)c3s2)cc2cn(C)nc12` [Compound 805, 2-(2,7-dimethyl-2H-indazol-5-yl)-6-(piperidin-4-yl)thieno[2,3-c]pyridin-7(6H)-one], the concentration for half-maximal inhibition (IC50) in data set [1] was 100 to 1000 nM; in data set [2], 100 to 1000 nM; in data set [3], 100 to 1000 nM; in data set [4], below 100 nM; in data set [5], 1000 to 10000 nM. For the same compound, the concentration at half-maximal activity (AC50) in data set [1] and in data set [3] was 100 to 1000 nM each time. Moreover, the GI50 at 72 h in data set [6] lay within 1000 to 10000 nM.
As to `Cc1cn2nc(-c3cc4ccn(C5CCNCC5)c(=O)c4s3)cc(C)c2n1` [Compound 806, 2-(2,8-dimethylimidazo[1,2-b]pyridazin-6-yl)-6-(piperidin-4-yl)thieno[2,3-c]pyridin-7(6H)-one], the IC50 in data set [1], in data set [2], in data set [3], in data set [4] and in data set [5] was 100 to 1000 nM throughout. Further, the half-maximal activity concentration (AC50) in data set [1] and in data set [3] was 100 to 1000 nM in each case. Also, the GI50 at 72 h in data set [6] was 100 to 1000 nM.
Consider `Cc1cn2cc(-c3cc4ccn(C5CCN(C)CC5)c(=O)c4s3)cc(F)c2n1` [Compound 808, 2-(8-fluoro-2-methylimidazo[1,2-a]pyridin-6-yl)-6-(1-methylpiperidin-4-yl)thieno[2,3-c]pyridin-7(6H)-one], for which the IC50 in data set [1] was 100 to 1000 nM; in data set [2], 100 to 1000 nM; in data set [3] it was 100 to 1000 nM; in data set [4] it was below 100 nM; in data set [5] it was 1000 to 10000 nM. In addition, the AC50 is 100 to 1000 nM in data set [1] and 1000 to 10000 nM in data set [3]. For the same compound, the concentration for 50% growth inhibition (GI50) at 72 h in data set [6] is 100 to 1000 nM.
On to `Cc1cn2nc(-c3cc4ccn(C5CCN(C)CC5)c(=O)c4s3)cc(C)c2n1` [Compound 809], for which the IC50 lay within 1000 to 10000 nM in data set [1]; 1000 to 10000 nM in data set [2]; 1000 to 10000 nM in data set [3]; 100 to 1000 nM in data set [4]; 1000 to 10000 nM in data set [5]. Besides, the AC50 in data set [1] and in data set [3] was 1000 to 10000 nM each time. This compound also gave a GI50 at 72 h in data set [6] of 1000 to 10000 nM.
Take `Cc1cn2nc(-c3nc4cnn(C5CCNCC5)c(=O)c4s3)cc(C)c2n1` [Compound 810]: the IC50 in data set [1], in data set [2], in data set [3], in data set [4] and in data set [5] was 100 to 1000 nM in each case. The AC50 in data set [1] and in data set [3] was 100 to 1000 nM each time. For the same compound, the 50% growth inhibitory concentration (GI50) at 72 h in data set [6] is 100 to 1000 nM.
On to `Cc1nc(-c2nc3cnn(C4CCNCC4)c(=O)c3s2)cc2cn(C)nc12` [Compound 811], for which the half-maximal inhibitory concentration (IC50) was 1000 to 10000 nM in data set [1]; 1000 to 10000 nM in data set [2]; 1000 to 10000 nM in data set [3]; 100 to 1000 nM in data set [4]; above 10000 nM in data set [5]. Besides, the AC50 in data set [1] and in data set [3] was 1000 to 10000 nM each time. This compound displayed a GI50 at 72 h in data set [6] of 1000 to 10000 nM.
